Experimental data reported in BindingDB's records for doi:10.1016/j.bioorg.2015.05.009 (Peking University, 2015).

Biological target: Glycogen synthase kinase-3 beta (Homo sapiens, UniProt P49841)
Test: Kinase-Glo Luminescent Kinase Assay
Details: pH 7.4
Procedure: Briefly, recombinant human GSK3β (1 µM, 10 µL) was mixed with 10 µL of GSK3β substrate ([…]pSEDEEE, 100 µM), 19 µL of 2.5 × kinase buffer (50 mM Tris-HCl, pH 7.4, 25 mM MgCl2), 10 µL of 10 µM ATP, 1 µL of the indicated amount of chemicals in DMSO to a final volume of 50 µL. Control reaction without kinase was set up. The mixtures were incubated at 30 °C for 40 min. The enzymatic reaction was stopped with 50 µL of Kinase-Glo reagent. Glow-type luminescence was recorded after 10 min.

Chain of Glycogen synthase kinase-3 beta (P49841 whole entry): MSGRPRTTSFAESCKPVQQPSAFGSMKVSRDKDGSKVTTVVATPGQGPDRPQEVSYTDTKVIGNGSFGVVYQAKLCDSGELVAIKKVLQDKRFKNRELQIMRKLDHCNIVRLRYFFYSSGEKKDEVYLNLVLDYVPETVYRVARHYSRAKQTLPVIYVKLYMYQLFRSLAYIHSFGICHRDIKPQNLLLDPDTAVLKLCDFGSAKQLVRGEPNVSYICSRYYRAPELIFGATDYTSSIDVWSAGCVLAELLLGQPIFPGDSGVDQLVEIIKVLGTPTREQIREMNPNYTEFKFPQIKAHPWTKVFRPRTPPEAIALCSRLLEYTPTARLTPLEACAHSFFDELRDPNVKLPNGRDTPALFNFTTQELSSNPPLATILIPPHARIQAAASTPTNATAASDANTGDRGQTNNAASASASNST

| Compound | IC50 |
| --- | --- |
| COc1cc2c(C)cc3c(c2cc1OC)C(=O)NC3=O [7,8-Dimethoxy-5-methyl-1H-benzo[e]isoindole-1,3(2H)-dione] | 1010 nM |
| COc1cc2c(CNC3CCN(S(=O)(=O)c4ccccc4[N+](=O)[O-])CC3)cc3c(c2cc1OC)C(=O)NC3=O [7,8-dimethoxy-5-((1-(2-nitrophenylsulfonyl)piperidin-4-ylamino)methyl)-1H-benzo[e]isoindole-1,3(2H)-dione (8f)] | 530 nM |
| COc1cc2c(CNC3CCN(S(=O)(=O)c4ccc(C(F)(F)F)cc4)CC3)cc3c(c2cc1OC)C(=O)NC3=O [7,8-dimethoxy-5-((1-(4-(trifluoromethyl)phenylsulfonyl)piperidin-4-ylamino)methyl)-1Hbenzo[e]isoindole-1,3 (2H)-dione (8e)] | 530 nM |
| COc1ccc(S(=O)(=O)N2CCC(NCc3cc4c(c5cc(OC)c(OC)cc35)C(=O)NC4=O)CC2)cc1 [7,8-dimethoxy-5-((1-(4-methoxyphenylsulfonyl)piperidin-4-ylamino)methyl)-1H-benzo[e]isoindole-1,3(2H)-dione (8b)] | 2610 nM |
| COc1cc2c(CNC3CCN(S(=O)(=O)c4ccc([N+](=O)[O-])cc4)CC3)cc3c(c2cc1OC)C(=O)NC3=O [7,8-dimethoxy-5-((1-(4-nitrophenylsulfonyl)piperidin-4-ylamino)methyl)-1H-benzo[e]isoindole-1,3(2H)-dione (8c)] | 310 nM |
| COc1cc2c(CNC3CCN(S(C)(=O)=O)CC3)cc3c(c2cc1OC)C(=O)NC3=O [7,8-dimethoxy-5-((1-(methylsulfonyl)piperidin-4-ylamino)methyl)-1H-benzo[e]isoindole-1,3(2H)-dione (8d)] | 360 nM |
| COc1cc2c(CNC3CCN(S(=O)(=O)c4ccccc4)CC3)cc3c(c2cc1OC)C(=O)NC3=O [7,8-dimethoxy-5-((1-(phenylsulfonyl)piperidin-4-ylamino)methyl)-1H-benzo[e]isoindole-1,3(2H)-dione (8g)] | 1030 nM |
| COc1cc2c(CNC3CCN(S(=O)(=O)c4cccc5cccnc45)CC3)cc3c(c2cc1OC)C(=O)NC3=O [7,8-dimethoxy-5-((1-(quinolin-8-ylsulfonyl)piperidin-4-ylamino)methyl)-1H-benzo[e]isoindole-1,3(2H)-dione (8h)] | 1530 nM |
| COc1cc2c(CNC3CCN(S(=O)(=O)c4cccs4)CC3)cc3c(c2cc1OC)C(=O)NC3=O [7,8-dimethoxy-5-((1-(thiophen-2-ylsulfonyl)piperidin-4-ylamino)methyl)-1H-benzo[e]isoindole-1,3(2H)-dione (8i)] | 540 nM |
| COc1cc2c(CNC3CCN(S(=O)(=O)c4ccc(C)cc4)CC3)cc3c(c2cc1OC)C(=O)NC3=O [7,8-dimethoxy-5-({[1-(4-methylbenzenesulfonyl)piperidin-4-yl]amino}methyl)-1H,2H,3H-benzo[e]isoindole-1,3-dione (8a)] | 3730 nM |
